According to article PMC8219945 (Bioorganic Chemistry, 2021):

tested on: SARS-CoV-2; assay: Antiviral IC50 determination; format: cell-based, SARS-CoV-2 (hCoV-19/Egypt/NRC-03/2020); conditions: not given

SMILES | SI (selectivity index/therapeutical index): CC50/IC50
CCN(CCO)CCCC(C)Nc1ccnc2cc(Cl)ccc12 (centres unmarked) [HCQ, hydroxychloroquine, reference compound] | 10.85

same assay, conditions: CC50 VERO-E6 / IC50 SARS-CoV-2

SMILES | SI (selectivity index/therapeutical index): CC50/IC50
Cc1ccc(-n2cc(COc3cc(C(F)(F)F)nc4ccc(F)cc34)nn2)cc1 [Compound 10f, 6-Fluoro-4-((1-(p-tolyl)-1H-1,2,3-triazol-4-yl)methoxy)-2-(trifluoromethyl)quinoline] | 1.71
COc1ccc2nc(C(F)(F)F)cc(OCc3cn(-c4ccc(F)cc4)nn3)c2c1 [Compound 10k, 4-((1-(4-Fluorophenyl)-1H-1,2,3-triazol-4-yl)methoxy)-6-methoxy-2-(trifluoromethyl)quinoline] | 1.34
COc1ccccc1-n1cc(Cn2c(C(F)(F)F)cc(=O)c3cc(C)ccc32)nn1 [Compound 11c, 1-((1-(2-Methoxyphenyl)-1H-1,2,3-triazol-4-yl)methyl)-6-methyl-2-(trifluoromethyl)quinolin-4(1H)-one] | 3.15
COc1ccc(-n2cc(Cn3c(C(F)(F)F)cc(=O)c4ccccc43)nn2)cc1 [Compound 11a, 1-((1-(4-Methoxyphenyl)-1H-1,2,3-triazol-4-yl)methyl)-2-(trifluoromethyl)quinolin-4(1H)-one] | 3.69
COc1ccc(-n2cc(COc3cc(C(F)(F)F)nc4ccccc34)nn2)cc1 [Compound 10c, 4-((1-(4-Methoxyphenyl)-1H-1,2,3-triazol-4-yl)methoxy)-2-(trifluoromethyl)quinoline] | 0.03
COc1ccccc1-n1cc(COc2cc(C(F)(F)F)nc3ccccc23)nn1 [Compound 10e, 4-((1-(2-Methoxyphenyl)-1H-1,2,3-triazol-4-yl)methoxy)-2-(trifluoromethyl)quinoline] | 0.03
Cc1ccc(-n2cc(COc3cc(C(F)(F)F)nc4ccccc34)nn2)cc1 [Compound 10b, 4-((1-(p-Tolyl)-1H-1,2,3-triazol-4-yl)methoxy)-2-(trifluoromethyl)quinoline] | 0.49
Cc1ccc2nc(C(F)(F)F)cc(OCc3cn(-c4ccccc4Cl)nn3)c2c1 [Compound 10i, 4-((1-(2-Chlorophenyl)-1H-1,2,3-triazol-4-yl)methoxy)-6-methyl-2-(trifluoromethyl)quinoline] | 4.51
Fc1ccc(-n2cc(COc3cc(C(F)(F)F)nc4ccccc34)nn2)cc1 [Compound 10a, 4-((1-(4-Fluorophenyl)-1H-1,2,3-triazol-4-yl)methoxy)-2-(trifluoromethyl)quinoline] | 5.04
COc1ccccc1-n1cc(COc2cc(C(F)(F)F)nc3ccc(F)cc23)nn1 [Compound 10h, 6-Fluoro-4-((1-(2-methoxyphenyl)-1H-1,2,3-triazol-4-yl)methoxy)-2-(trifluoromethyl)quinoline] | 0.76
FC(F)(F)c1cc(OCc2cn(-c3ccccc3Cl)nn2)c2ccccc2n1 [Compound 10d, 4-((1-(2-Chlorophenyl)-1H-1,2,3-triazol-4-yl)methoxy)-2-(trifluoromethyl)quinoline] | 2.85
COc1ccc2nc(C(F)(F)F)cc(OCc3cn(-c4ccc(C)cc4)nn3)c2c1 [Compound 10l, 6-Methoxy-4-((1-(p-tolyl)-1H-1,2,3-triazol-4-yl)methoxy)-2-(trifluoromethyl)quinoline] | 0.65
Fc1ccc2nc(C(F)(F)F)cc(OCc3cn(-c4ccccc4Cl)nn3)c2c1 [Compound 10g, 4-((1-(2-Chlorophenyl)-1H-1,2,3-triazol-4-yl)methoxy)-6-fluoro-2-(trifluoromethyl)quinoline] | 26.42
